Patent US10214477B2, “(Hetero)aryl cyclopropylamine compounds as LSD1 inhibitors” (Oryzon Genomics S.A., priority 2011, dated 2019)
Counter-ions that a name gives are not always drawn.

Tested on: THP-1 cells
Assay: Induction of differentiation of THP-1 leukemia cells (CD11b membrane expression, flow cytometry)
Format: cell-based
Details: Homo sapiens; percentage of CD11b positive THP-1 cells, 96 h treatment
Protocol: By analyzing the induction of CD11b membrane expression on THP-1 cells we are assessing the ability of LSD1 inhibitors to induce terminal monocytic differentiation of a MLL-AF9 AML cell line. […] They carry t(9;11)(p21;q23) leading to MLL-MLLT3 (MLL-AF9) fusion gene. This cell line can undergo monocytic differentiation upon treatment with the appropriate stimulus. […] In this assay, 150, 000 THP-1 cells were seeded in 1 ml of complete culture medium in 6-well tissue culture plates. […] Cells were kept in the presence of test compound for 96 h at a 5% CO2 atmosphere at 37° C. After this treatment period, cells were harvested, washed twice with PBS buffer and placed in a V-bottom 96-well plate. Each treated sample was split in two. […] Percentage of CD11b positive cells, as an indicator of monocytic differentiation, was determined compared to isotype control antibody stained cells. EC50 values were calculated by non-linear regression analysis.

EC50	Structure (SMILES)
5.3 nM	N[C@H]1CC[C@@H](N[C@@H]2C[C@H]2c2ccccc2)CC1 [Example 4, (cis)-N1-((1R,2S)-2-phenylcyclopropyl)cyclohexane-1,4-diamine hydrochloride]
0.8 nM	N[C@H]1CC[C@H](N[C@@H]2C[C@H]2c2ccccc2)CC1 [Example 5, (trans)-N1-((1R,2S)-2-phenylcyclopropyl)cyclohexane-1,4-diamine hydrochloride]
